From PubChem BioAssay AID179 (DTP/NCI, 2004)
The source made the active and inactive calls.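 Rule for the calls: active = compounds giving half or more protection of infected cells from virus-caused growth loss, again on retest; inactive = the rest.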

Tested on: CEM cells HIV-1 protection, formazan growth assay
Test: NCI AIDS Antiviral Assay
Settings: for IC50: measured here: growth of uninfected CEM cells
Summary of the method: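 Steps: treat uninfected and HIV-1-infected human CEM cells at five drug levels; quantify growth by soluble formazan; retest any compound reaching 50% protection; classify actives from the retest.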

SMILES	EC50	IC50	outcome
O=[N+]([O-])c1ccc(N=Cc2ccc(Cl)cc2)cc1	> 200 µM	9.77 µM	–
COC(=O)c1ccccc1/C=C1\Cc2ccc3c(c2C1=O)CCC3	> 200 µM	> 200 µM	–
S=P(Oc1cc(Cl)c(Cl)cc1Cl)(N1CCN(c2cccc(Cl)c2)CC1)N1CCN(c2cccc(Cl)c2)CC1	> 11.2 µM	> 11.2 µM	–
OCCCCOC(c1ccccc1)(c1ccccc1)c1ccccc1	> 15.8 µM	> 15.8 µM	–
O=C1CC(c2ccccc2)n2cccc21 (stereo not drawn)	–	–	inactive
OC(c1ccsc1)c1cc2ccccc2s1 (stereo not drawn)	> 200 µM	107 µM	–
O=C1CCCc2cc3c(cc21)CC1(C3)Cc2cc3c(cc2C1)C(=O)CCC3	> 200 µM	0.977 µM	–
O=S1(=O)CC(c2ccccc2)=NN=C(c2ccccc2)C1	> 61.7 µM	> 61.7 µM	–
N#Cc1ccc(/C=N\N2C(=O)c3ccccc3C2=O)cc1	> 26.3 µM	> 26.3 µM	–
OCn1nnc2ccccc21	–	–	inactive
CC(=O)Nc1ccc(S(=O)(=O)c2ccc(NC(=O)c3ccccc3SC(=O)CCCC[n+]3ccccc3)cc2)cc1	13.5 µM	> 200 µM	–
O=C(O)c1cnc2[nH]ccn2c1=O	> 200 µM	> 200 µM	–
O=C(Nc1nc2ncn(CC(COc3ccccc3)OC(=O)c3ccccc3)c2c(=O)[nH]1)c1ccccc1 (stereo not drawn)	> 70.8 µM	> 70.8 µM	–
Cn1c(-c2ccc(/C=N\N3CCN(/N=C/c4ccc(-c5c[n+]6ccccc6n5C)cc4)CC3)cc2)c[n+]2ccccc12	> 3.02 µM	> 3.02 µM	–
FC(F)(Oc1ccc2oc3ccccc3c2c1)c1nc2ccccc2o1	> 200 µM	33.9 µM	–
CC(C)(C)NC(=O)NC12CC3CC(CC(F)(C3)C1)C2	> 26.9 µM	> 26.9 µM	–
Cc1c(/C=N/NC(=S)Nc2cccc(Cl)c2)c(=O)n(-c2ccccc2)n1C	> 200 µM	> 200 µM	–

SMILES	EC50	IC50	outcome
CCOc1ccc(-n2nc(C(=O)O)cc(Cl)c2=O)cc1	> 427 µM	18.2 µM	–
CC(=O)OCC1OC(n2c(=S)n(-c3ccccc3)c(=S)c3ccccc32)C(OC(C)=O)C(OC(C)=O)C1OC(C)=O (stereo not drawn)	> 16.6 µM	> 16.6 µM	–
COc1ccc2c(O)c(Cl)c(=O)oc2c1	> 200 µM	> 200 µM	–
Nc1ccn(CC(=O)NCCO)c(=O)n1	> 200 µM	> 200 µM	–
CCNC(=S)N/N=C(/C)c1cccc(/C(C)=N\NC(=S)NCC)n1	> 200 µM	2.19 µM	–
COc1cc(OC)cc(Oc2nc3ccc(C(F)(F)F)cc3nc2-c2ccccc2)c1	> 200 µM	> 200 µM	–
CC(=O)Nc1c(C#N)c2n(c1C(=O)Nc1ccccc1)CCCC2	> 200 µM	> 200 µM	–
O=C(O)C1C2CCC(O2)C1C(=O)O (stereo not drawn)	> 1350 µM	> 1350 µM	–
C[C@@H]1C(=O)c2c(O)cc3c(c2O[C@@H]1C)CCC(C)(C)O3	> 200 µM	47.9 µM	–
CSc1ccc(NC(=O)Nc2cc(C)cc(C)n2)cc1	> 200 µM	> 200 µM	–
Nc1ccc(Nc2cc(=O)[nH]c(=O)[nH]2)cc1Cl	> 200 µM	> 200 µM	–
CCC1CN2CCC3(c4ccccc4)CC(C(=O)OC)=CC1C23 (stereo not drawn)	> 251 µM	38.9 µM	–
COCC12CN(C)C3C4C(OC)C1C3(C(OC)CC2O)C1CC2(O)C(OC)C(O)C4(OC(C)=O)C1C2OC(=O)c1ccccc1 (stereo not drawn)	–	–	inactive
O=C1c2cc([N+](=O)[O-])cnc2S(=O)(=O)N1c1ccc(Br)cc1	> 200 µM	95.5 µM	–
O=[N+]([O-])c1cccc(C2=NOC3C4CCC(C4)C23)c1 (stereo not drawn)	0.135 µM	66.1 µM	–
CCc1[nH]c(=O)c2oc3cc4ccccc4cc3c2c1C(=O)O	> 200 µM	> 200 µM	–
